In PubChem BioAssay (NCI):
Several values for one entry are separate records, joined by “and”; a condition that tells them apart may be missing. Identical values can stand only once.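 Method: 48-hour compound exposure of cells in 96-well plates, five concentrations, linear interpolation of endpoints. The concentration for 50% growth inhibition is given as GI50. TGI: concentration producing complete growth inhibition.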

Assays:
Assay in all cases: NCI-60 cell line screen, 48 h
MDA-MB-435 = tested on: MDA-MB-435
SK-MEL-2 melanoma = tested on: SK-MEL-2 melanoma
UACC-257 melanoma = tested on: UACC-257 melanoma
HL-60(TB) leukemia = tested on: HL-60(TB) leukemia
RPMI-8226 leukemia = tested on: RPMI-8226 leukemia
T-47D breast = tested on: T-47D breast
MALME-3M melanoma = tested on: MALME-3M melanoma
EKVX NSCLC = tested on: EKVX NSCLC
SF-268 CNS = tested on: SF-268 CNS
BT-549 breast = tested on: BT-549 breast

Row | SMILES | GI50 (MDA-MB-435) | TGI (MDA-MB-435) | GI50 (SK-MEL-2 melanoma) | TGI (SK-MEL-2 melanoma) | GI50 (UACC-257 melanoma) | TGI (UACC-257 melanoma) | GI50 (HL-60(TB) leukemia) | TGI (HL-60(TB) leukemia) | GI50 (RPMI-8226 leukemia) | TGI (RPMI-8226 leukemia) | GI50 (T-47D breast) | TGI (T-47D breast) | GI50 (MALME-3M melanoma) | TGI (MALME-3M melanoma) | TGI (EKVX NSCLC) | TGI (SF-268 CNS) | GI50 (BT-549 breast) | TGI (BT-549 breast) | GI50 (SF-268 CNS)
1 | CCCCCCCCCCCCCC[n+]1ccccc1 | 549 nM | 1.87 µM | 0.592 µM | 2.19 µM | 0.93 µM | 3.07 µM | 262 nM | 0.838 µM | 303 nM | 1.33 µM | 486 nM | 7.54 µM | 401 nM | 1.59 µM | – | – | – | – | –
2 | N#CCCN(CCC#N)c1ccc(/C=C(/NC(=O)c2cc([N+](=O)[O-])ccc2Cl)C(=O)NN)cc1 | – | – | – | > 100 µM | – | > 100 µM | – | – | – | > 100 µM | – | – | – | > 100 µM | > 100 µM | > 100 µM | – | – | –
3 | [O-]/N=[N+](/[O-])C1CCCCC1=[N+]1CCOCC1 (centres undefined) | – | – | – | > 100 µM | – | > 100 µM | – | > 100 µM | – | > 100 µM | – | – | – | > 100 µM | > 100 µM | > 100 µM | – | – | –
4 | OCC1OC2c3ccccc3COC2C1OCc1ccccc1 (centres undefined) | – | – | – | > 100 µM | – | > 100 µM | – | – | – | > 100 µM | – | – | – | > 100 µM | > 100 µM | – | – | – | –
5 | COc1cc2c(c(O)c1Cl)C(=O)c1c(O)cc(C[C@H](C)O)cc1[C@H]2[C@H]1c2cc(C[C@H](C)O)cc(O)c2C(=O)c2c1cc(OC)c(Cl)c2O | – | 16 µM and 98.3 µM | – | – | – | – | – | – | – | 75 µM and 74.4 µM | – | – | – | 5.27 µM and 47.3 µM | 75 µM and 90.9 µM | 75 µM and > 100 µM | 2.51 µM and 14 µM | 59 µM and 55.1 µM | 3.36 µM and 31.5 µM
6 | COC(=O)Cc1c([C@@]2(C)CCCC(C)(C)C2)ccc2c1C(=O)OC2 | – | – | – | – | – | 22.8 µM | – | 13.3 µM | – | 14.6 µM | – | – | – | 38 µM | 59.7 µM | – | – | – | –
7 | Nc1nc(NCCOCP(=O)(O)O)c([N+](=O)[O-])c(=O)[nH]1 | – | – | – | > 100 µM | – | > 100 µM | – | > 100 µM | – | > 100 µM | – | – | – | > 100 µM | > 100 µM | > 100 µM | – | – | –
8 | CCC12CCCN(Cc3ccccc3)C1c1c(n(C)c3ccccc13)C(CO)C2 (centres undefined) | – | – | – | 107 µM | – | 95.1 µM | – | 169 µM | – | 108 µM | – | – | – | 84.6 µM | 245 µM | > 257 µM | – | – | –
9 | CN1C(=O)CC2(C)c3cc(O)cc(Br)c3N(C)C12 (centres undefined) | – | – | – | > 100 µM | – | > 100 µM | – | – | – | – | – | – | – | > 100 µM | > 100 µM | > 100 µM | – | – | –
10 | COC(=O)[C@H](CC(C)C)NC(=O)[C@H](Cc1ccccc1)N1CC2C=CC1C2 (some centres undefined) | – | – | – | > 100 µM | – | > 100 µM | – | > 100 µM | – | 79.2 µM | – | – | – | > 100 µM | > 100 µM | > 100 µM | – | – | –
11 | CC1(C)CC(=O)C=C(/C=C/Sc2c(Cl)c(Cl)nc(Cl)c2Cl)C1 | 2880 nM | 8.2 µM | 70.2 µM | > 100 µM | 15.6 µM | 31.8 µM | – | – | 3410 nM | 75.1 µM | – | – | – | – | – | 32.4 µM | 5.87 µM | 22.3 µM | 13 µM
12 | COc1cccc(C=O)c1C(=O)c1cc(O)ccc1O | – | – | – | > 100 µM | – | 46.3 µM | – | > 100 µM | – | – | – | – | – | 37.5 µM | 37.9 µM | > 55.4 µM | – | – | –
13 | Cc1nn(C(=O)c2ccccc2O)c2c1C(c1ccc(O)cc1O)SC(N)=N2 (centres undefined) | – | > 10 µM | – | > 10 µM | – | – | – | > 10 µM | – | > 10 µM | – | – | – | > 10 µM | > 10 µM | > 10 µM | – | 8.39 µM | –
14 | COc1cc2c(cc1OC)C(C#N)N(C(=O)c1ccccc1)C=C2OC(=O)c1ccccc1 (centres undefined) | – | – | – | 54.7 µM | – | 53 µM | – | > 100 µM | – | > 100 µM | – | – | – | 50.2 µM | 71.9 µM | 86 µM | – | – | –
15 | O=C(COc1ccccc1Cl)N1N=C(c2ccccc2)CC1(O)c1ccccc1 (centres undefined) | – | – | – | 36.8 µM | – | 45.2 µM | – | 30.6 µM | – | 32.9 µM | – | – | – | 31.7 µM | – | > 100 µM | – | – | –
16 | O=C1C=C(Nc2ccccc2C(=O)CC(=O)C(=O)Nc2ccc(Cl)cc2)c2ccccc2C1=O | – | – | – | 34.3 µM | – | 21.7 µM | – | > 100 µM | – | > 33.2 µM | – | – | – | 24.1 µM | 99 µM | 57.5 µM | – | – | –
17 | Cc1cc(=O)[nH]c(CNC(=O)c2ccc3ccccc3c2)n1 | – | – | – | > 100 µM | – | > 100 µM | – | > 100 µM | – | – | – | – | – | > 100 µM | > 100 µM | > 100 µM | – | – | –
18 | CC(C)(C)N/N=C(\C(=O)Nc1cccc(Cl)c1)C1C(=O)Nc2ccccc2S1=O (centres undefined) | – | – | – | > 100 µM | – | > 100 µM | – | > 100 µM | – | – | – | – | – | 47.4 µM | > 100 µM | > 100 µM | – | – | –
19 | Cn1c(-c2ccc(-c3cc(-c4cccs4)c(-c4cccs4)n3C)cc2)cc(-c2cccs2)c1-c1cccs1 | – | > 100 µM | – | > 100 µM | – | > 100 µM | – | > 100 µM | – | > 100 µM | – | > 100 µM | – | – | > 100 µM | > 100 µM | – | – | –
20 | COC(=O)[C@H]1COC(=S)N1C(=O)[C@@H](C)[C@H](O)C(C)C | – | – | – | > 100 µM | – | > 100 µM | – | > 100 µM | – | > 100 µM | – | – | – | > 100 µM | > 100 µM | > 100 µM | – | – | –
